Assay results: ChEMBL document CHEMBL4602674, “19-nor-, 20-nor-, and tetranor-Halimane-Type Furanoditerpenoids from Croton crassifolius” (J Nat Prod, 2020)

How the values were obtained:
RAW264.7 [1] = assay: Inhibition of LPS-induced NO production in mouse RAW264.7 cells preincubated for 30 mins followed by LPS stimulation and measured after 24 hrs by Griess assay; format: functional, cell-based
RAW264.7 [2] = assay: Cytotoxicity against mouse RAW264.7 cells at 50 uM after 48 hrs by MTT assay; format: cell-based; details: raw264.7, 48 h

SMILES	IC50 (RAW264.7 [1])	Activity (RAW264.7 [2])
COC(=O)[C@@]1(CO)CCCC2=C1C(=O)C[C@@H](C)[C@]21C[C@@H](c2ccoc2)OC1=O	> 50 µM	Non-Toxic
COC(=O)C1(C(=O)OC)CCCC2=C1[C@@H](OC(C)=O)C[C@@H](C)[C@]21C[C@@H](c2ccoc2)OC1=O	> 50 µM	Non-Toxic
CO[C@@]12C[C@@H](C)[C@]3(C[C@@H](c4ccoc4)OC3=O)[C@@H]3CCCC(=C31)C(=O)O2	> 50 µM	Non-Toxic
C[C@@H]1C[C@@H](O)C2=C(C[C@@H]3C[C@]2(C)C(=O)O3)[C@@]12C[C@@H](c1ccoc1)OC2=O	> 50 µM	Non-Toxic
C[C@@H]1C[C@H]2OC(=O)C3=C2[C@@H](CCC3)[C@@]12C[C@@H](c1ccoc1)OC2=O	> 50 µM	Non-Toxic
COC(=O)[C@@]1(CO)CCCC2=C1[C@@H](OC(C)=O)C[C@@H](C)[C@]21C[C@@H](c2ccoc2)OC1=O	> 50 µM	Non-Toxic
COC(=O)[C@]1(C)CCCC2=C1CC[C@@H](C)[C@]2(C)CCC1=CC(=O)OC1	> 50 µM	Non-Toxic
CO[C@@H]1C[C@@H](C)[C@](C)(CC(=O)c2ccoc2)C2=C1[C@]1(C)C[C@H](C2)OC1=O	> 50 µM	Non-Toxic
COC(=O)C1(C(=O)OC)C2=C(CC[C@@H]1OC(C)=O)[C@@]1(C[C@@H](c3ccoc3)OC1=O)[C@H](C)CC2=O	> 50 µM	Non-Toxic
COC(=O)C1(C(=O)OC)CCCC2=C1[C@@H]1C[C@@H](C)[C@@]2(CC(=O)c2ccoc2)C(=O)O1	> 50 µM	Non-Toxic
COC(=O)[C@]1(C)CCCC2=C1C(=O)C[C@@H](C)[C@]2(C)CCC1=CC(=O)OC1	> 50 µM	Non-Toxic
COC(=O)[C@]1(C)C2=C(CC[C@H]1O)[C@@]1(C[C@@H](c3ccoc3)OC1=O)[C@H](C)C[C@@H]2OC(C)=O	> 50 µM	Non-Toxic
C[C@@H]1C[C@@H]2OC(=O)[C@]3(O)CCCC(=C23)[C@@]12C[C@@H](c1ccoc1)OC2=O	> 50 µM	Non-Toxic
COC(=O)[C@@]1(COC(C)=O)CCCC2=C1[C@@H](O)C[C@@H](C)[C@]21C[C@@H](c2ccoc2)OC1=O	> 50 µM	Non-Toxic
COC(=O)C1(C(=O)OC)CCCC2=C(CC(=O)c3ccoc3)[C@H](C)CC=C21	> 50 µM	Non-Toxic
COC(=O)[C@@]1(CO)CCCC2=C1[C@@H](O)C[C@@H](C)[C@]21C[C@@H](c2ccoc2)OC1=O	> 50 µM	Non-Toxic

SMILES	IC50 (RAW264.7 [1])	Activity (RAW264.7 [2])
COC(=O)[C@@]1(C)CC(=O)C=C2[C@@](C)(CC(=O)c3ccoc3)[C@H](C)CC[C@]21O	> 50 µM	Non-Toxic
C[C@@H]1C[C@H]2OC(=O)[C@@]3(CO)CCCC(=C23)[C@@]12C[C@@H](c1ccoc1)OC2=O	> 50 µM	Non-Toxic
COC(=O)[C@@]1(C)C2=C(CC[C@H]1OC(C)=O)[C@@]1(C[C@@H](c3ccoc3)OC1=O)[C@H](C)CC2=O	> 50 µM	Non-Toxic
COC(=O)[C@@]1(COC(C)=O)CCCC2=C1CC[C@@H](C)[C@]21C[C@@H](c2ccoc2)OC1=O	> 50 µM	Non-Toxic
COC(=O)[C@@]1(C)CCCC2=C1[C@@H](OC(C)=O)C[C@@H](C)[C@]21C[C@@H](c2ccoc2)OC1=O	> 50 µM	Non-Toxic
COC(=O)[C@@]1(C)C2=C(CC[C@H]1O)[C@@]1(C[C@@H](c3ccoc3)OC1=O)[C@H](C)CC2	> 50 µM	Non-Toxic
COC(=O)[C@@]1(C)CCCC2=C1[C@@H](O)C[C@@H](C)[C@]21C[C@@H](c2ccoc2)OC1=O	> 50 µM	Non-Toxic
C[C@@H]1CCC2=C(C[C@@H]3C[C@]2(C)C(=O)O3)[C@@]12C=C(c1ccoc1)OC2=O	> 50 µM	Non-Toxic
C[C@@H]1C[C@@H]2OC(=O)C3=C2[C@](O)(CCC3)[C@@]12C[C@@H](c1ccoc1)OC2=O	> 50 µM	Non-Toxic
Cc1cc(O)cc2c1CC[C@@H](C)[C@]2(C)CC(=O)c1ccoc1	23.7 µM	Non-Toxic
CC1=CC(=O)C2=C3[C@@]1(O)CC[C@@H](C)[C@]3(C)C=C2c1ccoc1	17.2 µM	Non-Toxic
COC(=O)[C@@]1(C)CC(=O)C2=C3[C@@](C)(CC2=O)[C@H](C)CC[C@]31O	> 50 µM	Non-Toxic
C[C@@H]1CCC2=C(C[C@H]3C[C@]2(C)C(=O)O3)[C@@]1(C)CC(=O)c1ccoc1	> 50 µM	Non-Toxic
COC(=O)[C@@]1(C)C2=C(CC[C@H]1OC(C)=O)[C@@]1(C[C@@H](c3ccoc3)OC1=O)[C@H](C)CC2 [CRASSIFOLIN F]	> 50 µM	Non-Toxic
O=c1c(O)c(-c2ccc(O)c(O)c2)oc2cc(O)cc(O)c12 [QUERCETIN]	15.1 µM	
C[C@@H]1C[C@@H]2OC(=O)C3=C2[C@H](CCC3)[C@@]12C[C@@H](c1ccoc1)OC2=O [TEUCVIN]	> 50 µM	Non-Toxic
